According to US4012516A, “Pharmacologically active compositions” (Burroughs Wellcome Co., priority 1975, dated 1977):
Like-named read-outs stand apart in the source and are kept apart here.

Tested on: human chopped lung tissue
Test: Inhibition of histamine release from human chopped lung tissue passively sensitized in vitro with reaginic antibody, challenged with homologous antigen
Format: cell-based
Conditions: for inhibition at 0.001 µM: Salbutamol 10^-9 M alone; for inhibition at 0.0001 µM: Salbutamol 10^-10 M alone; for inhibition at 1 µM: Compound (II) 10^-6 M alone
Description: The release of histamine from lung preparations treated in this way is known to be inhibited by both the stimulants and the compounds of formula (I) when used separately, but it has now been shown that their combined effect is greater than was to be expected from a knowledge of the activity of the individual components, and in particular the inhibition is greater than the sum of the individual responses when the components are used separately at the same concentrations. The compounds of formula (I) are represented by the formula [drawing 1] wherein Z is carbonyl (C=O) or oxygen (--O--), and X is carboxy or a 5-tetrazolyl group, and salts thereof with pharmaceutically acceptable cations. Of especial value are:
The experimental procedure used was that using chopped human lung tissue substantially as described in Br. Med. J. 3, 272 (1968).

[1] = Homo sapiens, Experiment A, Compound (II) none, read-out: Percentage Inhibition of Histamine Release
[2] = Homo sapiens, Experiment B, Compound (II) none, read-out: Percentage Inhibition of Histamine Release

| SMILES | inhibition at 0.001 µM [1] | inhibition at 0.0001 µM [1] | inhibition at 0.01 µM (Homo sapiens, Experiment B, Salbutamol 10^-8 M alone, Compound (II) none, read-out: Percentage Inhibition of Histamine Release) | inhibition at 0.001 µM [2] | inhibition at 0.0001 µM [2] | Percentage Inhibition of Histamine Release (Experiment A, combination: Compound (II) 10^-6 M + Salbutamol 10^-9 M) | Percentage Inhibition of Histamine Release (Experiment A, combination: Compound (II) 10^-6 M + Salbutamol 10^-10 M) | Percentage Inhibition of Histamine Release (Experiment B, combination: Compound (II) 10^-6 M + Salbutamol 10^-8 M) | Percentage Inhibition of Histamine Release (Experiment B, combination: Compound (II) 10^-6 M + Salbutamol 10^-9 M) | Percentage Inhibition of Histamine Release (Experiment B, combination: Compound (II) 10^-6 M + Salbutamol 10^-10 M) | Percentage Inhibition of Histamine Release (Experiment B, combination: Compound (II) 10^-7 M + Salbutamol 10^-8 M) | Percentage Inhibition of Histamine Release (Experiment B, combination: Compound (II) 10^-7 M + Salbutamol 10^-9 M) | Percentage Inhibition of Histamine Release (Experiment B, combination: Compound (II) 10^-7 M + Salbutamol 10^-10 M) | inhibition at 1 µM (Homo sapiens, Experiment A, Salbutamol none, read-out: Percentage Inhibition of Histamine Release) | inhibition at 1 µM (Homo sapiens, Experiment B, Salbutamol none, read-out: Percentage Inhibition of Histamine Release) | inhibition at 0.1 µM (Homo sapiens, Experiment B, Compound (II) 10^-7 M alone, Salbutamol none, read-out: Percentage Inhibition of Histamine Release) | anti-allergic effect in combination with bronchodilator stimulants (combined with bronchodilators acting directly or indirectly by stimulation) |
| --- | --- | --- | --- | --- | --- | --- | --- | --- | --- | --- | --- | --- | --- | --- | --- | --- | --- |
| CC(C)(C)NCC(O)c1ccc(O)c(CO)c1 (stereo not drawn) [Salbutamol, α'-t-butylaminomethyl-4-hydroxy-m-xylene-α',α^3-diol, reference compound] | 0% | 17% | 27% | 22% | 0.9% | – | – | – | – | – | – | – | – | – | – | – | – |
| O=C1c2ccccc2S(=O)(=O)c2cc(-c3nnn[nH]3)ccc21 [Compound (II), 3-(5-TETRAZOLYL)THIOXANTHONE-10,10-DIOXIDE] | – | – | – | – | – | 49% | 58% | 38% | 96% | -11% | 64% | 80.5% | -5% | 15% | -14.5% | -13% | potentiated |
